In US8163756B2 (priority 2004, dated 2012):

Assays:
Type in all cases: biochemical
[1] = biological target: T1, KDR kinase (Homo sapiens, UniProt P35968, DEL940-989/E990V); experiment: KDR kinase assay K2 (as K1, 2.1 nM enzyme, 2 h pre-incubation, 1.0 mM ATP); details: Method K2; read-out: KDR Data (IC50)
Experimental: (§1) IC50 values were calculated from a series of percent inhibition values determined at a range of inhibitor concentrations using software routines as implemented in the GraphPad Prism software package.

[2] = biological target: B-Raf(V599E) kinase (Homo sapiens, UniProt P15056, V600E); experiment: B-Raf(V599E) kinase assay B1 (construct 1, MEK1 substrate, coupled spectrophotometric)
Chain of B-Raf(V599E) kinase (P15056 with tags, fused parts or gaps V600E): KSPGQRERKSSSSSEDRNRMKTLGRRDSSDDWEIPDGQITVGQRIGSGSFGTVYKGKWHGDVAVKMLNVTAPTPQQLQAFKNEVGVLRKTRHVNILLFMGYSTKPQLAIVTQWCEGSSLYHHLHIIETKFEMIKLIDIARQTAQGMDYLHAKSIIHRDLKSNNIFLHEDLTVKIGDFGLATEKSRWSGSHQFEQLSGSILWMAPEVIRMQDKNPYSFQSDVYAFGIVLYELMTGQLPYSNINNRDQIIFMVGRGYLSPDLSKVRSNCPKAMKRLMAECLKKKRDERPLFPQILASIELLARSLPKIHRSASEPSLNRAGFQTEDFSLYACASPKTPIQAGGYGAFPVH
Experimental: The test compounds were incubated with the reaction mixtureat 30° C. for 2 h. […] The reaction rate was calculated using the […] time frame. […] IC50 values were calculated from a series of percent inhibition values determined at a range of inhibitor concentrations using software routines as implemented in the GraphPad Prism software package.

[3] = biological target: T1, KDR kinase; experiment: KDR kinase assay K1 (pyruvate kinase/lactate dehydrogenase coupled, spectrophotometric); details: Method K1; read-out: KDR Data (IC50)
Experimental: as §1

[4] = biological target: T2, Abl kinase (Homo sapiens, UniProt P00519); experiment: Abl kinase assay A1 (pyruvate kinase/lactate dehydrogenase coupled, spectrophotometric); details: Method A1; read-out: Abl Data (IC50)
T2 sequence (P00519 229-512): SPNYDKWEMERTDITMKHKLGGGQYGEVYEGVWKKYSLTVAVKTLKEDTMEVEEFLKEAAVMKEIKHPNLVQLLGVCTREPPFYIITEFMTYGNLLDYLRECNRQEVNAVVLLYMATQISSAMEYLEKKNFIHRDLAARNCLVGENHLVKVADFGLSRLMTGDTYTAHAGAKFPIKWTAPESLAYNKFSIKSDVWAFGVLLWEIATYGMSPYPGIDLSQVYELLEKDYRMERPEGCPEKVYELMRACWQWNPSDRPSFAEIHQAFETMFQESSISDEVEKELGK
Experimental: as §1

[5] = biological target: phosphorylated p-38-alpha kinase (Homo sapiens, UniProt Q16539); experiment: P-38 alpha kinase assay P1 (coupled spectrophotometric, 2 h pre-incubation); details: method P1 (2 h pre-incubation); read-out: P-38 Data
Chain of phosphorylated p-38-alpha kinase (Q16539 1-360 isoform Q16539-2): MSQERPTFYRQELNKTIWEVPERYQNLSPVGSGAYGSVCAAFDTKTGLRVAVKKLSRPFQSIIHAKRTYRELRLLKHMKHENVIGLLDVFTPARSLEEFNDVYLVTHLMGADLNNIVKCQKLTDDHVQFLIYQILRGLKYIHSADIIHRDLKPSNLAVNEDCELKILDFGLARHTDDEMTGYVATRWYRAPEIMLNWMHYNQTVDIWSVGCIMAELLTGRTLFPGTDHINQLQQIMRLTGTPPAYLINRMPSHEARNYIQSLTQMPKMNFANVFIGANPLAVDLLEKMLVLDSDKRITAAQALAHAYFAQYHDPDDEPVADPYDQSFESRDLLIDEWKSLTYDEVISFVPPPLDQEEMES

T1 sequence (P35968 with tags, fused parts or gaps DEL940-989/E990V): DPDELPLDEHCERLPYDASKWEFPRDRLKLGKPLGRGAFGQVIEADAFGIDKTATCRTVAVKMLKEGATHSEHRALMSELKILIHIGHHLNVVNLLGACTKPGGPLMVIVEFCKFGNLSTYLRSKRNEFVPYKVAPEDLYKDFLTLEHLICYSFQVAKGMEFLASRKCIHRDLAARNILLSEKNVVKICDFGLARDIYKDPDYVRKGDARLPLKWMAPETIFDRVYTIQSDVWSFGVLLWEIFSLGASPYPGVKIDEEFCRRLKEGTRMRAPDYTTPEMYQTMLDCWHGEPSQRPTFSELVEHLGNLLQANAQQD

Row | SMILES | IC50 [1] | IC50 [2] | IC50 [3] | IC50 [4] | IC50 [5]
1 | CC(C)(C)c1cc(NC(=O)Nc2cccc(Cl)c2Cl)n(-c2cccc(Br)c2)n1 [Example 49, 1-(1-(3-bromophenyl)-3-t-butyl-1H-pyrazol-5-yl)-3-(2,3-dichlorophenyl)urea] | 86 nM | 3.8 nM | – | – | –
2 | CC(C)(C)c1cc(NC(=O)Nc2cccc(Cl)c2Cl)n(-c2ccc3c(c2)CCNC3=O)n1 [Example 137, 1-(3-t-butyl-1-(1-oxo-1,2,3,4-tetrahydroisoquinolin-6-yl)-1H-pyrazol-5-yl)-3-(2,3-dichloro-phenyl)urea] | – | 2.5 nM | 1000 nM | 150 nM | 55 nM
3 | CC(C)(C)c1cc(NC(=O)Nc2cccc(Cl)c2Cl)n(-c2ccc3c(c2)CCN(S(C)(=O)=O)C3)n1 [Example 154, 1-(3-t-butyl-1-(2-(methylsulfonyl)-1,2,3,4-tetrahydroisoquinolin-6-yl)-1H-pyrazol-5-yl)-3-(2,3-dichlorophenyl)urea] | – | 2.9 nM | 92 nM | 270 nM | 12 nM
4 | CC(C)(C)c1cc(NC(=O)Nc2cccc(Cl)c2Cl)n(-c2ccc3c(c2)CCNC(=O)C3)n1 [Example 165, 1-(3-t-butyl-1-(2-oxo-2,3,4,5-tetrahydro-1H-benzo[d]azepin-7-yl)-1H-pyrazol-5-yl)-3-(2,3-dichlorophenyl)urea] | – | 2.4 nM | 210 nM | 200 nM | 7 nM
5 | CC(C)(C)c1cc(NC(=O)Nc2cccc(Cl)c2Cl)n(-c2ccc3c(c2)CCNCC3)n1 [Example 166, 1-(3-t-butyl-1-(2,3,4,5-tetrahydro-1H-benzo[d]azepin-7-yl)-1 H-pyrazol-5-yl)-3-(2,3-dichlorophenyl)urea] | – | 5.7 nM | 210 nM | 230 nM | 61 nM
6 | CC(C)(C)c1cc(NC(=O)Nc2cccc(Cl)c2Cl)n(-c2ccc3c(c2)CN[C@H](C(=O)O)C3)n1 [Example 177, (3S)-7-(3-t-butyl-5-(3-(2,3-dichlorophenyl)ureido)-1H-pyrazol-1-yl)-1,2,3,4-tetra-hydroisoquinoline-3-carboxylic acid] | – | 6.3 nM | 230 nM | 1800 nM | 43 nM
7 | CC(C)(C)c1cc(NC(=O)Nc2cccc(Cl)c2Cl)n(-c2ccc3c(c2)CN[C@H](C(N)=O)C3)n1 [Example 178, 1-(3-t-butyl-1-((3S)-3-carbamoyl-1,2,3,4-tetrahydroisoquinolin-7-yl)-1 H-pyrazol-5-yl)-3-(2,3-dichlorophenyl)urea] | – | 2 nM | 180 nM | 230 nM | 46 nM
8 | CC(C)(C)c1cc(NC(=O)Nc2cccc(Cl)c2Cl)n(-c2ccc3c(c2)C[C@@H](C(=O)O)NC3)n1 [Example 186, (3S)-6-(3-t-butyl-5-(3-(2,3-dichlorophenyl)ureido)-1H-pyrazol-1-yl)-1,2,3,4-tetrahydroisoquinoline-3-carboxylic acid] | – | 9.2 nM | 900 nM | 60 nM | 50 nM
9 | CC(C)(C)c1cc(NC(=O)N[C@H]2CCc3ccccc32)n(-c2ccc3c(c2)CCNC3)n1 [Example 199, 1-(3-t-butyl-1-(1,2,3,4-tetrahydroisoquinolin-6-yl)-1H-pyrazol-5-yl)-3-((S)-2,3-dihydro-1H-inden-1-yl)urea] | 34400 nM | – | – | – | –
10 | CC(C)(C)c1cc(NC(=O)Nc2ccc(F)cc2F)n(-c2ccc3c(c2)CCN(S(C)(=O)=O)C3)n1 [Example 200, 1-(3-t-butyl-1-(2-(methylsulfonyl)-1,2,3,4-tetrahydroisoquinolin-6-yl)-1H-pyrazol-5-yl)-3-(2,4-difluorophenyl)urea] | 2700 nM | – | – | – | –
11 | CC(C)(C)c1cc(NC(=O)Nc2ccc(F)c(F)c2)n(-c2cccc(C#N)c2)n1 [Example 206, 1-(3-t-butyl-1-(3-cyanophenyl)-1H-pyrazol-5-yl)-3-(3,4-difluorophenyl)urea] | 480 nM | – | – | – | –
12 | CC(C)(C)c1cc(NC(=O)Nc2cc(F)cc(F)c2)n(-c2cccc(C#N)c2)n1 [Example 208, 1-(3-t-butyl-1-(3-cyanophenyl)-1H-pyrazol-5-yl)-3-(3,5-difluorophenyl)urea] | 470 nM | – | – | – | –
13 | CC(C)(C)c1cc(NC(=O)Nc2cc(F)cc(F)c2F)n(-c2cccc(C#N)c2)n1 [Example 209, 1-(3-t-butyl-1-(3-cyanophenyl)-1H-pyrazol-5-yl)-3-(2,3,5-trifluorophenyl)urea] | 260 nM | – | – | – | –
14 | CC(C)(C)c1cc(NC(=O)Nc2ccc(Cl)cc2)n(-c2cccc(CN3C(=O)C(=O)NS3(=O)=O)c2)n1 [Example 225, 1-{5-t-butyl-2-[3-(1,1,3,4-tetraoxo-1λ^6-[1,2,5]thiadiazolidin-2-ylmethyl)phenyl]-2H-pyrazol-3-yl}-3-(4-chlorophenyl)urea] | 9600 nM | 170 nM | – | – | –
15 | COc1cccc(-n2nc(C(C)(C)C)cc2NC(=O)Nc2cccc(Br)c2)c1 [Example 232, 1-(3-t-butyl-1-(3-methoxyphenyl)-1H-pyrazol-5-yl)-3-(3-bromophenyl)urea] | 2600 nM | 38 nM | – | – | –
16 | CC(C)(C)c1cc(NC(=O)Nc2cccc(F)c2F)n(-c2ccc(CCO)cc2)n1 [Example 262, 1-(3-t-butyl-1-(4-(2-hydroxyethyl)phenyl)-1H-pyrazol-5-yl)-3-(2,3-difluoro-phenyl)urea] | 2700 nM | 34 nM | – | – | –
17 | CC(C)(C)c1cc(NC(=O)Nc2ccccc2F)n(-c2cccc(CCC(=O)O)c2)n1 [Example 265, 3-(3-{3-t-butyl-5-[3-(2-fluorophenyl)ureido]-1H-pyrazol-1-yl}-phenyl)propionic acid] | 9800 nM | 14 nM | – | – | –
18 | Cn1[nH]c(=O)n(Cc2cccc(-n3nc(C(C)(C)C)cc3NC(=O)Nc3cccc(Cl)c3Cl)c2)c1=O [Example 268, 1-{5-t-butyl-2-[3-(1-methyl-3,5-dioxo-[1,2,4]triazolidin-4-ylmethyl)-phenyl]-2H-pyrazol-3-yl}-3-(2,3-dichloro-phenyl)-urea] | 2600 nM | 11 nM | – | – | –
19 | CC(C)(C)c1cc(NC(=O)Nc2cccc(F)c2F)n(-c2ccc3ncccc3c2)n1 [Example 283, 1-(3-t-butyl-1-(quinolin-6-yl)-1H-pyrazol-5-yl)-3-(2,3-difluorophenyl)urea] | 440 nM | 6.4 nM | – | – | –
20 | CC(C)(C)c1cc(NC(=O)Nc2cc(F)c(F)cc2F)n(-c2ccc3[nH]c(=O)ccc3c2)n1 [Example 330] | 390 nM | 3.2 nM | – | – | –
21 | CC(C)(C)c1cc(NC(=O)Nc2ccc(F)c(F)c2F)n(-c2ccc3[nH]c(=O)ccc3c2)n1 [Example 333, 1-(3-t-butyl-1-(2-oxo-1,2-dihydroquinolin-6-yl)-1H-pyrazol-5-yl)-3-(2,3,4-trifluorophenyl)urea] | 230 nM | 3.4 nM | – | – | –
22 | COc1cccc(-n2nc(C(C)(C)C)cc2NC(=O)Nc2ccc(Cl)c(Cl)c2)c1 [Example 337, 1-(3-t-butyl-1-(3-methoxyphenyl)-1H-pyrazol-5-yl)-3-(3,4-dichlorophenyl)urea] | 2000 nM | – | – | – | –
23 | COc1cccc(-n2nc(C(C)(C)C)cc2NC(=O)Nc2ccc([N+](=O)[O-])cc2)c1 [Example 338, 1-(3-t-butyl-1-(3-methoxyphenyl)-1H-pyrazol-5-yl)-3-(4-nitrophenyl)urea] | 5000 nM | – | – | – | –
24 | CC(C)(C)c1cc(NC(=O)Nc2ccc(Cl)cc2)n(-c2ccc3ncccc3c2)n1 [Example 339, 1-[3-t-butyl-1-(quinolin-6-yl)-1H-pyrazol-5-yl]-3-(4-chlorophenyl)urea] | 1200 nM | – | – | – | –
25 | CC(C)(C)c1cc(NC(=O)Nc2ccc(Cl)cc2)n(-c2cccc(CCO)c2)n1 [Example 342, 1-{3-t-butyl-1-[3-(2-hydroxyethyl)phenyl]-1H-pyrazol-5-yl}-3-(4-chlorophenyl)-urea] | 5700 nM | – | – | – | –
26 | CC(C)(C)c1cc(NC(=O)Nc2ccc(Cl)cc2)n(-c2cccc(CNC(=O)N3CCOCC3)c2)n1 [Example 343, 1-(3-t-butyl-1-{3-[(morpholine-4-carboxamido)methyl]phenyl}-1H-pyrazol-5-yl)-3-(4-chlorophenyl)urea] | 18000 nM | – | – | – | –
27 | CCOC(=O)C1CCN(C(=O)Cc2cccc(-n3nc(C(C)(C)C)cc3NC(=O)Nc3cccc(Cl)c3Cl)c2)CC1 [Example 344, ethyl 1-[2-(3-{3-t-butyl-5-[3-(2,3-dichlorophenyl)ureido]-1H-pyrazol-1-yl}phenyl)acetyl]piperidine-4-carboxylate] | 2700 nM | – | – | – | –
28 | CCOC(=O)C1CCCN(C(=O)Cc2ccc(-n3nc(C(C)(C)C)cc3NC(=O)Nc3cccc(Cl)c3Cl)cc2)C1 (centres unmarked) [Example 346, ethyl 1-[2-(4-{3-t-butyl-5-[3-(2,3-dichlorophenyl)ureido]-1H-pyrazol-1-yl}phenyl)acetyl]piperidine-3-carboxylate] | 1700 nM | – | – | – | –
29 | CC(C)(C)c1cc(NC(=O)Nc2cccc3ccccc23)n(-c2ccc3c(c2)C(=O)NCC3)n1 [Example 348, 1-[3-t-butyl-1-(1-oxo-1,2,3,4-tetrahydroisoquinolin-7-yl)-1 H-pyrazol-5-yl]-3-(naphthalen-1-yl)urea] | 16500 nM | – | – | – | –
